Laboratory results reported in patent EP4818324A1, “BIOLOGICAL METHOD FOR PREPARING 1,2-PROPANEDIOL” (Tianjin University, priority 2023, dated 2025).

Key:
[1] = system: Lactiplantibacillus plantarum 1,5-anhydroglucitol-6-phosphate isomerase LpYbiW (Uniprot A0A807DR53), SEQ ID NO: 2; assay: Michaelis-Menten kinetics of LpYbiW, coupled with LpFsaA and EcGldA, NADH consumption at A340nm; assay type: biochemical; settings: substrate 1,5-anhydroglucitol-6-phosphate at varying concentrations; 100 nM activated LpYbiW, 20 mM Tris/HCl pH 7.5, 100 mM KCl, 0.4 mM NADH, glove box
Description: The Michaelis-Menten kinetic parameters of LpYbiW were determined by coupling with LpFsaA and EcGldA. The reaction rate of LpYbiW was monitored by measuring NADH consumption at A340nm. The absorbance change of the reaction system at 340 nm was measured every 5 seconds using the cuvette mode of an ultra-micro UV-visible spectrophotometer (Nanophotometer) in a glove box (1 cm light path). These reaction systems consisted of 100 nM activated LpYbiW, 20 mM Tris/HCl, (pH 7.5), 100 mM KCl, 1,5-anhydroglucitol-6-phosphate with varying concentrations, 5 µM LpFsaA, 5 µM EcGldA, and 0.4 mM NADH.

[2] = target: T1, Escherichia coli strain K12 1,5-anhydromannitol-6-phosphate isomerase EcPflD (Uniprot P32674), SEQ ID NO: 98 (Escherichia coli, UniProt P32674); assay: Michaelis-Menten kinetics of EcPflD, coupled with EcFsaB and EcGldA, decrease in A340nm; assay type: biochemical; settings: substrate 1,5-AM-6P at various concentrations; 40 nM activated EcPflD, 20 mM Tris/HCl pH 7.5, 100 mM KCl, 0.4 mM NADH, glove box
T1 sequence (P32674 1-765): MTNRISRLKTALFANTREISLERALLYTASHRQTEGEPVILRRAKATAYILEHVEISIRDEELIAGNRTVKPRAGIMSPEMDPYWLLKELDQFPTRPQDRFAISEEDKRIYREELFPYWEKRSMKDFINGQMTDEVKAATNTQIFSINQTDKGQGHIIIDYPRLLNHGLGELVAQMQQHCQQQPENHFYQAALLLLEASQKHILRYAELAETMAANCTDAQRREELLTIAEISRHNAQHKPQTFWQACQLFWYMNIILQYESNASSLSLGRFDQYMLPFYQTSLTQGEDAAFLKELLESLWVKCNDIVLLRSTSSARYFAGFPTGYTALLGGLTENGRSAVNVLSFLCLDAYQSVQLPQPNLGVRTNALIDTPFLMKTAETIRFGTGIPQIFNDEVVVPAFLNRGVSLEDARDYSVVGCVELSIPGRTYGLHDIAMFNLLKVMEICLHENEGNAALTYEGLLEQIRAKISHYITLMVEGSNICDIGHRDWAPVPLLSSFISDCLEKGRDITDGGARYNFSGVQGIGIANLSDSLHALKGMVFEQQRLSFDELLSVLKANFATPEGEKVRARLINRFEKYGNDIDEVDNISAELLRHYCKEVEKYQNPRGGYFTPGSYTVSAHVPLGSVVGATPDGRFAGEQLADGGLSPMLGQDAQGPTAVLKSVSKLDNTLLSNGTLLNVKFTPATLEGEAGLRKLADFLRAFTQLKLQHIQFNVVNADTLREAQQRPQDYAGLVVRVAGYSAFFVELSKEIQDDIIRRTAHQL
Description: The reaction system containing 20 mM Tris/HCl, (pH 7.5), 100 mM KCl, 40 nM activated EcPflD and 1,5-AM-6P with various substrate concentrations, 2 µM EcFsaB, 2 µM EcGldA, and 0.4 mM NADH was measured using a cuvette mode of an ultra-micro UV-Vis spectrophotometer (Hangzhou Miu Instruments Co., Ltd.) in a 1 cm Eppendorf cuvette inside a glove box. The decrease in A340nm was monitored at 5-second intervals.

For O=P(O)(O)OC[C@H]1OC[C@H](O)[C@@H](O)[C@@H]1O [1,5-AG-6P, 1,5-anhydroglucitol-6-phosphate], the Km [1] was 36.5 ± 6.66 mM and the kcat [1] was 43.38 ± 2.96 s^-1/LpYbiW.
Work on O=P(O)(O)OC[C@H]1OC[C@@H](O)[C@@H](O)[C@@H]1O [1,5-AM-6P, 1,5-anhydromannitol-6-phosphate] yielded a Km [2] of 1.33 ± 0.12 mM and a kcat [2] of 33.47 ± 0.79 s^-1/EcPflD.
